These results are taken from patent publication US8921373B2, “Compounds having TRPV1 antagonistic activity and uses thereof” (Shionogi & Co., Ltd., priority 2010, dated 2014).

The structures appear in SMILES notation.

Experiment [1] deals with T1, human recombinant TRPV1 (Homo sapiens (Human), UniProt Q8NER1). Nature of the experiment: TRPV1 pH-Based Assay (Protocol 2, Ca2+ response in TRPV1/CHO cells, Fura-2). Format: cell-based. Particulars: TRPV1/CHO cells, pH 5.0-5.1; read-out: IC50 value by the pH-Based Assay. As for the experimental part: (§1) For Protocol 2, a Chinese Hamster Ovary cell line (CHO) that has been engineered to constitutively express human recombinant TRPV1 was used (TRPV1/CHO cells). The TRPV1/CHO cell line was generated as described below.
T1 sequence (Q8NER1 whole entry): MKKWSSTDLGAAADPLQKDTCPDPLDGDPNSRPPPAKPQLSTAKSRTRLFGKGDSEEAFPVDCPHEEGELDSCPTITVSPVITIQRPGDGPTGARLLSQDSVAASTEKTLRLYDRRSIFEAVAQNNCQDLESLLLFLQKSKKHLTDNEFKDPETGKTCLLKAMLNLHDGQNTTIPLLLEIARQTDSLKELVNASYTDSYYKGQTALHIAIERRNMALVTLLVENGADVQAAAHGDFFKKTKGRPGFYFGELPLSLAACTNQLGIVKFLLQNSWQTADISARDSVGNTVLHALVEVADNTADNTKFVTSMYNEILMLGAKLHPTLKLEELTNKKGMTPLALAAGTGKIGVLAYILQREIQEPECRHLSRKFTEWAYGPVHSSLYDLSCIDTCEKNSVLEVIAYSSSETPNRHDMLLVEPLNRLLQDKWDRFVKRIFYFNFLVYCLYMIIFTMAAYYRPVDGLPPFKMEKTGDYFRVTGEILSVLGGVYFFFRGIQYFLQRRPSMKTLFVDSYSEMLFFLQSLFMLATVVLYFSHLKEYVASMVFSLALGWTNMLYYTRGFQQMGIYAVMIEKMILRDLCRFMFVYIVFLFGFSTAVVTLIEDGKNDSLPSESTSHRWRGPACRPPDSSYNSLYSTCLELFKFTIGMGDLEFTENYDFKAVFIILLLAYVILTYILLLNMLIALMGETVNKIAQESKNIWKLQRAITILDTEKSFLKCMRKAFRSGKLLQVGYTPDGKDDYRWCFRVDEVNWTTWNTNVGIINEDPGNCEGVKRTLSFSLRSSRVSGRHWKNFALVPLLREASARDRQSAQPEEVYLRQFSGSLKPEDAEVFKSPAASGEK
TRPV1/CHO cells were seeded in the 96-well clear-bottom black-wall plate (Nunc) at densities of 1-2×10^4 cells/well and grown in 100 μL of culture medium (alpha-MEM supplemented with 10% FBS, 20 mM HEPES, 1 mg/mL geneticin and 1% antibiotic-antimycotic mixed stock solution) for 1-2 days before the experiment.
(2) The 96-well plate was incubated at 37° C. for 45 min.
(3) The loading buffer was removed from each well. […] The wells were then refilled with 80 μL of measuring buffer.
(4) After an incubation at 4° C. for 15 min, the 96-well plate was transferred to FDSS-3000 (Hamamatsu Photonics, Japan).
(5) The Fura-2 fluorescent intensity was monitored at a wavelength of 340 nm and at 380 nm, respectively, at a rate of 0.5 Hz for a total of 240 seconds. After 16 time points (32 sec) of baseline detection, 20 μL of agonist solution was added to each well. The final volume was 100 μL/well.
(6) Fluorescence intensity ratio refers to the fluorescence intensity at 340 nm over the fluorescence intensity at 380 nm at a particular time point. The baseline was set as the average of the fluorescent intensity ratios for the first 16 time points before the addition of agonist solution. The maximum response was the highest fluorescent intensity ratio during the 60 time points following addition of agonist solution.
(7) Maximal signal ratios from each well were calculated as output data using the FDSS-3000 analysis program. Data were analyzed using Excel (Microsoft) and XLfit (idbs) software.
Two different agonist solutions with different H2SO4 concentrations were used for the pH assay (FIG. 3A). For one half of a 96-well plate one agonist solution was used, for the other half the other agonist solution. The agonist solutions were obtained by diluting sulfuric acid (H2SO4, 1M) with measuring buffer. The concentrations for the two agonist solutions were determined as described above in Section 2 of Protocol 2.
The sulfuric acid concentrations between the two agonist solutions differed by 0.5 mM. […] After 1:4 dilution of the agonist solutions, the final sulfuric acid concentration was 3.2 mM and 3.3 mM, respectively. The resulting pH value for the pH assay was 5.0 to 5.1.
Test compounds were dissolved in DMSO to yield 1 mM stock solutions. […] The thereby-obtained solutions were further diluted in measuring buffer (1:100) as 10× stock serial dilutions with a DMSO concentration of 1%. 10 μL of a 10× stock was added into each well at step 3.3.(4) of Protocol 2.
Steps (1) and (2) of this Assay were the same as steps 2.2.(1) and 2.2.(2) of Protocol 2, respectively.
(3) The cells were washed twice with 150 μL of measuring buffer (mentioned in 2.2.(3) of Protocol 2, no probenecid). The wells were subsequently refilled with 70 μL of measuring buffer.
(4) Either 10 μl of measuring buffer or 10 μL of 10× stock serial dilution of test compound (described in 3.2. above) were applied to each well. Usually, only one test compound was tested per 96-well plate. The number of replicates per 96-well plate for a particular antagonist at a particular concentration was 7×2 since two different sulfuric acid concentrations were used per 96-well plate (N=7×2) (FIG. 3).
Step (5) was the same as 2.2.(4) above.
(6) Fura-2 fluorescent intensity was monitored as described in 2.2.(5) above. After 16 time points of baseline detection, 20 μL of agonist solution (measuring buffer titrated with H2SO4 to yield pH 5.0-5.1 when mixed 1:4 with the measuring buffer containing test compound) was added to each well (final volume 100 μL/well).
Steps (7) and (8) were as described in 2.2.(6) and 2.2.(7) above, respectively.
(1) The pH values of the buffer in the wells of A1→H1 and A7→H7 (longitudinally; FIG. 3) were measured one by one using a portable pH meter.

Experiment [2] deals with T1, human recombinant TRPV1. Nature of the experiment: TRPV1 Capsaicin-Based Assay (Protocol 2, TRPV1/CHO cells, Fluo-4, FLIPR). Format: cell-based. Conditions: TRPV1/CHO cells, capsaicin 100 nM final; read-out: IC50 value by the Capsaicin-Based Assay. As for the experimental part: as §1
One day prior to assay, TRPV1/CHO cells were seeded in 96-well clear-bottom black plates (20,000 cells/well) in growth media. On the day of the experiment, the cells were washed with 0.2 mL 1× Hank's Balanced Salt Solution (Life Technologies) containing 1.6 mM CaCl2 and 20 mM HEPES, pH 7.4 (“wash buffer”). Subsequently, the cells were loaded by incubation in 0.1 mL of wash buffer containing Fluo-4 at 3 μM final concentration. After 1 hour, the cells were washed twice with 0.2 mL wash buffer and resuspended in 0.1 mL wash buffer. The plates were then transferred to a Fluorescence Imaging Plate Reader (Molecular Devices). Fluorescence intensity was monitored for 15 seconds to establish a baseline. Subsequently, test compounds diluted in assay buffer (1× Hank's Balanced Salt Solution containing 1 mM CaCl2 and 20 mM HEPES, pH 7.4) containing 1% DMSO were added to the cell plate and fluorescence was monitored for 2 minutes. […] Human TRPV1 was then activated by the addition of 50 μL capsaicin (100 nM final concentration) and plates incubated for an additional 3 min. Data were collected over the entire time course and analyzed using Excel and the curve-fitting formula GraphPad Prism.

For `Cc1cc(NC(=O)N2CCC(F)(c3ncc(C[C@@H](O)CO)cc3C)CC2)ccc1OC(F)(F)F` [ACF, (R)-4-(5-(2,3-dihydroxypropyl)-3-methylpyridin-2-yl)-4-fluoro-N-(3-methyl-4-(trifluoromethoxy)phenyl)piperidine-1-carboxamide], the 50% inhibitory concentration (IC50) on human recombinant TRPV1 [1] and on human recombinant TRPV1 [2] was at most 50 nM throughout.
Regarding `CC1(C)CN(c2ncc(C[C@H](O)CO)cc2F)CCN1C(=O)Nc1nc2ccc(F)cc2s1` [AFT], the IC50 on human recombinant TRPV1 [1] and at human recombinant TRPV1 [2] was at most 50 nM throughout.
With `Cc1cc(NC(=O)N2CC=C(c3ncc(C[C@@H](O)CO)cc3Cl)CC2)ccc1OC(F)(F)F` [AAS, (R)-4-(3-Chloro-5-(2,3-dihydroxypropyl)pyridin-2-yl)-N-(3-methyl-4-(trifluoromethoxy)phenyl)-5,6-dihydropyridine-1(2H)-carboxamide], the half-maximal inhibitory concentration (IC50) at human recombinant TRPV1 [1] and at human recombinant TRPV1 [2] was at most 50 nM each time.
In the case of `C[C@H]1CN(C(=O)Nc2nc3ccc(Cl)cc3s2)CCN1c1ncc(C[C@@H](O)CO)cc1F` [AFR], the IC50 at human recombinant TRPV1 [1] and on human recombinant TRPV1 [2] was at most 50 nM throughout.
Regarding `Cc1ccc2nc(NC(=O)N3CCN(c4ncc(C[C@H](O)CO)cc4F)C[C@@H]3C)sc2c1` [AEP], the IC50 on human recombinant TRPV1 [1] and at human recombinant TRPV1 [2] was at most 50 nM in each case.
With `Cc1cc(C[C@@H](O)CO)cnc1N1CCN(C(=O)Nc2nc3ccc(F)cc3s2)CC1` [ADA, (R)-4-(5-(2,3-dihydroxypropyl)-3-methylpyridin-2-yl)-N-(6-fluorobenzo[d]-thiazol-2-yl)piperazine-1-carboxamide], the IC50 at human recombinant TRPV1 [1] and on human recombinant TRPV1 [2] was at most 50 nM throughout.
Turning to `CC1(C)CN(c2ncc(C[C@@H](O)CO)cc2F)CCN1C(=O)Nc1nc2ccc(F)cc2s1` [AFZ], the IC50 on human recombinant TRPV1 [1] and on human recombinant TRPV1 [2] was at most 50 nM throughout.
Turning to `C[C@H]1CN(c2ncc(C[C@H](O)CO)cc2Cl)CCN1C(=O)Nc1nc2ccccc2s1` [AED], the 50% inhibitory concentration (IC50) on human recombinant TRPV1 [1] and on human recombinant TRPV1 [2] was at most 50 nM throughout.
For `C[C@H]1CN(c2ncc(C[C@@H](O)CO)cc2Cl)CCN1C(=O)Nc1nc2ccc(F)cc2s1` [ADY], the IC50 at human recombinant TRPV1 [1] and at human recombinant TRPV1 [2] was at most 50 nM throughout.
For the compound `Cc1cc2nc(NC(=O)N3CCN(c4ncc(C[C@@H](O)CO)cc4Cl)CC3)sc2cc1C` [AEH], the IC50 on human recombinant TRPV1 [1] and at human recombinant TRPV1 [2] was at most 50 nM throughout.
As for `C[C@H]1CN(c2ncc(C[C@H](O)CO)cc2Cl)CCN1C(=O)Nc1nc2ccc(F)cc2s1` [AEB], the concentration for half-maximal inhibition (IC50) at human recombinant TRPV1 [1] and at human recombinant TRPV1 [2] was at most 50 nM throughout.
For the compound `Cc1cc(NC(=O)N2CCC(F)(c3ncc(C[C@H](O)CO)cc3C)CC2)ccc1OC(F)(F)F` [ACM, (S)-4-(5-(2,3-dihydroxypropyl)-3-methylpyridin-2-yl)-4-fluoro-N-(3-methyl-4-(trifluoromethoxy)phenyl)piperidine-1-carboxamide], the IC50 at human recombinant TRPV1 [1] and at human recombinant TRPV1 [2] was at most 50 nM each time.
As for `C[C@H]1CN(c2ncc(C[C@H](O)CO)cc2F)CCN1C(=O)Nc1nc2ccc(Cl)cc2s1` [AEN], the 50% inhibitory concentration (IC50) at human recombinant TRPV1 [1] and at human recombinant TRPV1 [2] was at most 50 nM each time.
As for `Cc1cc(NC(=O)N2CCC(F)(c3ncc(C[C@@H](O)CO)cc3Cl)CC2)ccc1OC(F)(F)F` [ACJ, (R)-4-(3-Chloro-5-(2,3-dihydroxypropyl)pyridin-2-yl)-4-fluoro-N-(3-methyl-4-(trifluoromethoxy)phenyl)piperidine-1-carboxamide], the IC50 at human recombinant TRPV1 [1] and at human recombinant TRPV1 [2] was at most 50 nM throughout.
For `C[C@H]1CN(C(=O)Nc2nc3ccc(Cl)cc3s2)CCN1c1ncc(C[C@H](O)CO)cc1F` [AGK], the IC50 on human recombinant TRPV1 [1] and on human recombinant TRPV1 [2] was at most 50 nM each time.
In the case of `Cc1cc(NC(=O)N2CCC(F)(c3ncc(C[C@H](O)CO)cc3C)CC2)ccc1C(F)(F)F` [ACN, (S)-4-(5-(2,3-dihydroxypropyl)-3-methylpyridin-2-yl)-4-fluoro-N-(3-methyl-4-(trifluoromethyl)phenyl)piperidine-1-carboxamide], the 50% inhibitory concentration (IC50) on human recombinant TRPV1 [1] and on human recombinant TRPV1 [2] was at most 50 nM each time.
In the case of `C[C@H]1CN(c2ncc(C[C@H](O)CO)cc2C(F)(F)F)CCN1C(=O)Nc1nc2ccc(F)cc2s1` [AGW], the concentration for half-maximal inhibition (IC50) at human recombinant TRPV1 [1] and at human recombinant TRPV1 [2] was at most 50 nM each time.
